≈ marks a conversion by molar mass, not a printed value. Positions of bridges follow the written chain, without caps; N, C: chain ends. Non-standard residues stand in square brackets, D forms with d. Residues, ends and D or L forms follow the SMILES beside them. No end group written: not given here. Bip = N[C@@H](Cc1ccc(-c2ccccc2)cc1)C(=O)O; 2Nal = N[C@@H](Cc1ccc2ccccc2c1)C(=O)O
Tests used:
human fibroblasts (HFW) = settings: peptide >25 µg/mL; cited from earlier work
E. coli ATCC 25922 [1] = assay: microbe, parasite or virus in culture; format: cell-based, Escherichia coli; settings: ATCC 25922, 16 h
Description: (§1) The antibacterial activities of peptides were determined by the standard broth microdilution method according to the guidelines of the Clinical and Laboratory Standards Institute (CLSI). Briefly, E. coli ATCC 25922 were incubated in MHB, and E. faecium BCRC 15B0132, VISA and VRSA strains were incubated in TSB overnight at 37 °C. The cell cultures were regrown to the mid-log phase and subsequently diluted to a final concentration of 5 × 10^5 CFU/mL. The 1 µL peptides or antibiotic were loaded into each well at the final concentration of 64, 32, 16, 8, 4, 2, 1, and 0.5 µg/mL, then loaded 99 µL diluted microbes into each well of polypropylene 96-well plate. After 16 h of incubation at 37 °C, the turbidity at OD600 was measured by the microplate reader. The minimal inhibitory concentration (MIC) value was defined as the lowest concentration of peptide or antibiotic, which inhibited the 90% visible growth of bacteria. All experiments were repeated three times independently.

[2] = tested on: E. faecium BCRC 15B0132 (VRE); assay: microbe, parasite or virus in culture; format: cell-based, Enterococcus faecium; settings: BCRC 15, 16 h
Description: as §1

E. coli ATCC 25922 [3] = assay: Uptake of BODIPY-labeled vancomycin, confocal laser scanning microscopy; format: cell-based, Escherichia coli; settings: E. coli 10^7 CFU/mL, 0.5 ×MIC peptide 30 min at 37 °C, then BODIPY-labeled vancomycin (2 μg/mL) 30 min; mean fluorescence intensity
Description: (§2) The fluorescence experiments were performed with slight modification as described previously. Briefly, the bacteria (10^7 CFU/mL) were incubated with 0.5 ×MIC antimicrobial peptides for 30 min and then treated with BODIPY-labeled vancomycin (2 μg/mL) for 30 min. Samples treated with BODIPY-labeled vancomycin only served as a control. After incubation, bacteria were centrifuged at 8000× g for 5 min, washed three times with PBS to remove unbinding fluorescence dye, and resuspended by PBS. The resuspended solution were loaded on the glass slides (Polysine™, Thermo Fisher Scientific, Waltham, MA, USA) and visualized under confocal laser scanning microscope (LSM 510 META, Carl Zeiss, Jena, Thüringen, Germany) equipped with a 64× oil objective lens (Carl Zeiss, Jena, Thüringen, Germany).

[4] = tested on: Vancomycin-resistant S. aureus 02 (VRSA02); assay: microbe, parasite or virus in culture; format: cell-based, Staphylococcus aureus; settings: VRSA02 (induced from VISA02 by serial passage); CLSI broth microdilution, TSB, 5 × 10^5 CFU/mL, 16 h, 37 °C; triplicate
Description: (§3) For the purpose of inducing vancomycin-resistant Staphylococcus aureus (VRSA), the VISA01, VISA02, and VISA03 bacteria were incubated overnight in culture medium, and transferring 50 µL of bacteria to 5 mL of fresh medium containing 2 μg/mL of vancomycin then incubated overnight. The bacteria were transferred to new tube with doubling vancomycin concentration and then incubated overnight again. The concentration of vancomycin during serial passage was 2, 4, 8, 16, and 32 µg/mL. The procedure was repeated until meeting the final concentration of 32 µg/mL. After serial passage, the cell resistance was confirmed by using an MIC assay.
as §1

[5] = tested on: Vancomycin-resistant S. aureus 01 (VRSA01); assay: microbe, parasite or virus in culture; format: cell-based, Staphylococcus aureus; settings: VRSA01 (induced from VISA01 by serial passage); CLSI broth microdilution, TSB, 5 × 10^5 CFU/mL, 16 h, 37 °C; triplicate
Description: as §3, §1

[6] = tested on: Vancomycin-resistant S. aureus 03 (VRSA03); assay: microbe, parasite or virus in culture; format: cell-based, Staphylococcus aureus; settings: VRSA03 (induced from VISA03 by serial passage); CLSI broth microdilution, TSB, 5 × 10^5 CFU/mL, 16 h, 37 °C; triplicate
Description: as §3, §1

[7] = tested on: Vancomycin-intermediate S. aureus 02 (VISA02); assay: microbe, parasite or virus in culture; format: cell-based, Staphylococcus aureus; settings: Vancomycin-intermediate 02 (VISA02, 16 h)
Description: as §1

[8] = tested on: Vancomycin-intermediate S. aureus 03 (VISA03); assay: microbe, parasite or virus in culture; format: cell-based, Staphylococcus aureus; settings: Vancomycin-intermediate 03 (VISA03, 16 h)
Description: as §1

[9] = tested on: Vancomycin-intermediate S. aureus 01 (VISA01); assay: microbe, parasite or virus in culture; format: cell-based, Staphylococcus aureus; settings: Vancomycin-intermediate 01 (VISA01, 16 h)
Description: as §1

[10] = among the P-113 derivatives; cited from earlier work
Text: The two terminal β-naphthylalanine residues of S1-Nal-Nal (Ac-[…]alNal-NH2) were inserted into the hydrophobic lipid A motif of LPS micelles. […] Similarly, derivatives with phenylalanine-(Phe-P-113), β-naphthylalanine- (Nal-P-1 ...

[11] = tested on: VRE, VISA, VRSA, and E. coli strains; assay: microbe, parasite or virus in culture; format: cell-based; settings: all strains studied (VRE, VISA 01-03, VRSA 01-03, E. coli), Table 2
Description: as §1

mice = settings: mouse, in vivo, 10 mg/kg; cited from earlier work
[12] = tested on: E. faecium BCRC 15B0132 (VRE); assay: Time killing assay; format: cell-based, Enterococcus faecium; settings: 5 × 10^5 CFU/mL, 1 × MIC, 0.5-24 h, 37 °C, triplicate
Description: (§4) The bactericidal activities of vancomycin, P-113, Phe-P-113, Bip-P-113, Dip-P-113, and Nal-P-113 against E. faecium BCRC 15B0132 (VRE) and E. coli ATCC 25922 were assessed by the time-kill analysis. The cells were grown overnight in TSB or MHB at 37 °C with shaking, and then fresh TSB or MHB was inoculated for growth to mid-logarithmic phase. Bacteria (5 × 10^5 CFU/mL) were treated with 1 × MIC vancomycin, P-113, Phe-P-113, Bip-P-113, Dip-P-113, and Nal-P-113 for 0.5, 1, 2, 4, 6, 10, and 24 h at 37 °C. Bacteria without peptides and vancomycin served as a control. Aliquots were removed at each time points, and 10-fold serial dilutions of the aliquot were plated onto the Müller-Hinton agar. The numbers of CFU were counted after 24 h of incubation at 37 °C. The detection limit for the colony counts was 2log10 CFU/mL.

[13] = POPC:POPG (3:1, mol/mol) and POPC:LPS (4:1, mol/mol) LUVs; cited from earlier work
Text: Dathe and coauthors used POPC:LPS as model prokaryotic membranes to study peptide activity against E. coli and the role of LPS [20]. Previously, we have evaluated the membrane-permeability of P-113 and its derivatives by measuring the release of calcein from various phospholipid vesicles such as POPC:POPG (3:1, mol/mol) LUVs (mimic the anionic bacterial membrane) and POPC:LPS (4:1, mol/mol) LUVs (served as surrogates of Gram-negative bacterial membranes that contain LPS). […] Nal- ...

[14] = tested on: VRE, VISA, VRSA and E. coli strains; assay: Checkerboard assay, summary statements of the text over the strain panel; format: cell-based; settings: peptide at ¼ ×MIC combined with vancomycin, all strains studied
Description: The synergistic effects of peptides in combination with vancomycin were investigated by checkerboard assay with slight modification. The peptides were fixed concentration at ¼ × MIC, then in combination with antibiotics at various concentrations in each well of 96-well plate. Then the peptide/antibiotic were mixed with inoculum (5 × 10^5 CFU/mL) and incubated at 37 °C for 16 h. The fractional inhibitory concentration (FIC) index was calculated as follows: FIC index = (MIC of drug A in combination/MIC of drug A alone) + (MIC of drug B in combination/MIC of drug B alone). An FIC index of ≤ 0.5 was defined as synergy, indifference was defined as an FIC index of 0.5 < FICI ≤ 4, antagonism was defined as an FIC index of > 4. The experiments were performed in triplicate.

E. faecium BCRC 15B0132 = assay: Uptake of BODIPY-labeled vancomycin, confocal laser scanning microscopy; format: cell-based, Enterococcus faecium; settings: VRE 10^7 CFU/mL, 0.5 ×MIC peptide 30 min at 37 °C, then BODIPY-labeled vancomycin (2 μg/mL) 30 min; mean fluorescence intensity
Description: as §2

E. coli ATCC 25922 [15] = assay: Time killing assay; format: cell-based, Escherichia coli; settings: E. coli ATCC 25922, 5 × 10^5 CFU/mL, 1 × MIC, 0.5-24 h, 37 °C; triplicate
Description: as §4

Gram-negative bacteria = settings: cited from earlier work
Text: CLP-19 was derived from the core domain of Limulus anti-LPS factor (LALF; amino acids 31–52) with a sequence of ([…]) and a head to tail disulfide bond. It is likely that the positive charges of CLP-19 can interact with the negative charges of LPS and the hydrophobic part of CLP-19 can bind to the f ...

Molecule	cell death (MTT) (human fibroblasts (HFW))	MIC (E. coli ATCC 25922 [1]) [µg/mL]	MIC [2] [µg/mL]	entry of BODIPY-labeled vancomycin into the bacteria (rank order) (E. coli ATCC 25922 [3])	MIC [4] [µg/mL]	MIC [5] [µg/mL]	MIC [6] [µg/mL]	MIC [7] [µg/mL]	MIC [8] [µg/mL]	MIC [9] [µg/mL]	serum proteolytic stability [10]	MICs against these bacterial strains [11]	adverse effect in mice (mice)	killing kinetics [12]	calcein leakage from LUVs [13]	synergy with vancomycin (interpretation of FICI) [14]	entry of BODIPY-labeled vancomycin into the bacteria (rank order) (E. faecium BCRC 15B0132)	killing kinetics (E. coli ATCC 25922 [15])	antibiotic-induced release of LPS (Gram-negative bacteria)
CC(=O)N[C@@H](C)C(=O)N[C@@H](CCCCN)C(=O)N[C@@H](CCCNC(=N)N)C(=O)N[C@@H](Cc1ccc(-c2ccccc2)cc1)C(=O)N[C@@H](Cc1ccc(-c2ccccc2)cc1)C(=O)NCC(=O)N[C@@H](Cc1ccc(O)cc1)C(=O)N[C@@H](CCCCN)C(=O)N[C@@H](CCCNC(=N)N)C(=O)N[C@@H](CCCCN)C(=O)N[C@@H](Cc1ccccc1)C(=O)N[C@@H](Cc1ccc(-c2ccccc2)cc1)C(N)=O [Bip-P-113] (Ac-AKR[Bip][Bip]GYKRKF[Bip]-NH2)	10–20%	32 (≈ 17.2 µM)	4 (≈ 2.15 µM)	Bip-P-113 > Nal-P-113 > Dip-P-113 > Phe-P-113 = P-113	16 (≈ 8.58 µM)	16 (≈ 8.58 µM)	8 (≈ 4.29 µM)	16 (≈ 8.58 µM)	8 (≈ 4.29 µM)	16 (≈ 8.58 µM)	enhanced	best MICs	did not observe any adverse effect	rapid bactericidal activity	strongest ability to induce calcein leakage	best synergy with vancomycin against all of the bacterial strains tested	Bip-P-113 = Nal-P-113 > Dip-P-113 > Phe-P-113 = P-113		
CC(=O)N[C@@H](C)C(=O)N[C@@H](CCCCN)C(=O)N[C@@H](CCCNC(=N)N)C(=O)N[C@@H](Cc1ccc2ccccc2c1)C(=O)N[C@@H](Cc1ccc2ccccc2c1)C(=O)NCC(=O)N[C@@H](Cc1ccc(O)cc1)C(=O)N[C@@H](CCCCN)C(=O)N[C@@H](CCCNC(=N)N)C(=O)N[C@@H](CCCCN)C(=O)N[C@@H](Cc1ccccc1)C(=O)N[C@@H](Cc1ccc2ccccc2c1)C(N)=O [Nal-P-113] (Ac-AKR[2Nal][2Nal]GYKRKF[2Nal]-NH2)	10–20%	32 (≈ 17.9 µM)	4 (≈ 2.24 µM)	Bip-P-113 > Nal-P-113 > Dip-P-113 > Phe-P-113 = P-113	8 (≈ 4.48 µM)	8 (≈ 4.48 µM)	16 (≈ 8.96 µM)	8 (≈ 4.48 µM)	8 (≈ 4.48 µM)	8 (≈ 4.48 µM)		best MICs		rapid bactericidal activity	dose-dependent calcein leakage	synergistic effects against VRE, VISA 03, VRSA 01, VRSA 02, VRSA 03, and E. coli	Bip-P-113 = Nal-P-113 > Dip-P-113 > Phe-P-113 = P-113	fastest bactericidal activity	
CHYRIKPTFRRLKWKYKGKFWC (disulfide 1-22 (inferred)) [CLP-19, antimicrobial peptide derived from the core domain of Limulus anti-LPS factor, with a disulfide bond]																			reduce antibiotic-induced release of LPS

Reference: publication PMC7369893, “Antimicrobial Peptides Display Strong Synergy with Vancomycin Against Vancomycin-Resistant E. faecium, S. aureus, and Wild-Type E. coli” (International Journal of Molecular Sciences, 2020)
